# Results taken from patent publication US7125848B2, “Methods of treating non-inflammatory gastrointestinal tract disorders using Cav2.2 subunit calcium channel modulators” (Dynogen Pharmaceuticals, Inc., priority 2003, dated 2006).
# Test system: HVA calcium channel currents in GI tract afferent DRG neurons
# Assay type: cell-based, rat
substance,measurement,value
Omega-conotoxin GVIA (CKSHYPGSSCSHYPTSYNCCRSCNHYPYTKRCY; VARIANT (0)...(0) omega-conotoxin GVIA; listed as Conus geographus),calcium current amplitude as percentage of control amplitudes,59±4%
